Assays:
[1] = test system: Cancer of the Ovary with Liver Metastasis; assay: Antimycotic treatment of a Candida-seropositive patient, cancer of the ovary with liver metastasis; type: in vivo, human; details: Patient 6, Candida serological test 640; 100 mg 1 capsule a day for 30 days
Experimental: The inventor has performed many serological tests on patients suffering from various illnesses and particularly from different types of cancer.
Patient 6: person with Cancer of the Ovary with Liver Metastasis.
The patient was treated with Diflucan, 100 mg 1 capsule a day. For 30 days

Psoriasis = assay: Antimycotic treatment of a Candida-seropositive patient, psoriasis; type: in vivo, human; details: Patient 4, Candida serological test 640; 100 mg 1 capsule a day for 1 month
Experimental: (§1) The inventor has performed many serological tests on patients suffering from various illnesses and particularly from different types of cancer. The inventor has shown that, in many of the patients who tested positive for Candida in the serological tests, after antimycotic treatments, a full recovery was observed, with complete disappearance of the tumours in the case of the patients affected by cancer.
Positive Candida serological test (640)
The patient was treated with Diflucan, 100 mg 1×1 capsule a day. For 1 month.

C. cruzii = details: infections caused by C. cruzii; cited from earlier work
candidiasis = details: in vivo; cited from earlier work
C. glabrata = details: some other species of Candida, particularly C. glabrata; cited from earlier work
[2] = test system: tumour of the myoma of the uterus; assay: Antimycotic treatment of a Candida-seropositive patient, tumour of the myoma of the uterus; type: in vivo, human; details: Patient 1, Candida rate 640; 1 tablet 2x day for two weeks, then 1 tablet a day for 30 days
Source text: as §1
A patient, hospitalised, suffering from a tumour of the myoma of the uterus.
The patient was treated with Nizoral (1 tablet 2× day for two weeks, then 1 tablet a day for 30 days).

Prostate Cancer = assay: Antimycotic treatment of Candida-seropositive patients, prostate cancer; type: in vivo, human
Source text: as §1
Patient 2: person with Prostate Cancer.
Positive for Candida serological test (640)
The patient was treated with Orungal, 100 mg capsules, 1×1 caps a day for 1 month.
Patient 7: person with Prostate Cancer
Positive candida serological test (320).
The patient was treated with Nizoral (1 tablet 2× day for two weeks, then 1 tablet a day for 30 days.

Breast Cancer = assay: Antimycotic treatment of a Candida-seropositive patient, breast cancer; type: in vivo, human; details: Patient 3, Candida serological test 320; capsule 100 mg, 1 caps a day for 60 days
Experimental: as §1
Patient 3: person with Breast Cancer
The patient was treated with Orungal, capsule 100 mg, 1×1 caps a day for 60 days.

Ulcerative Colitis = assay: Antimycotic treatment of a Candida-seropositive patient, ulcerative colitis; type: in vivo, human; details: Patient 5, serological test 320; 100 mg 1 caps a day for 28 days
Experimental: as §1
Patient 5: Ulcerative Colitis.
Positive serological test (320).
The patient was treated with Orungal, 100 mg 1×1 caps a day, for 28 days.

SMILES: OC(Cn1cncn1)(Cn1cncn1)c1ccc(F)cc1F [Diflucan]
- Result of treatment [1]: Complete recovery with disappearance of the tumours
- Result of treatment (Psoriasis): Complete recovery at the end of the treatment

SMILES: OC(Cn1cncn1)(Cn1cncn1)c1ccc(F)cc1F [Fluconazole, fluconazole]
- Response of infections to treatment (C. cruzii): do not respond
- Effectiveness in candidiasis compared with amphotericin B (candidiasis): as effective as amphotericin B
- Sensitivity compared with C. albicans (C. glabrata): less sensitive

SMILES: CC(=O)N1CCN(c2ccc(OCC3COC(Cn4ccnc4)(c4ccc(Cl)cc4Cl)O3)cc2)CC1 (stereo not shown) [Nizoral]
- Result of treatment (tumour) [2]: Disappearance of the tumour at the end of the treatment
- Result of treatment (Prostate Cancer; Patient 7, Candida serological test 320, 1 tablet 2x day for two weeks, then 1 tablet a day for 30 days): Complete recovery

SMILES: CCC(C)n1ncn(-c2ccc(N3CCN(c4ccc(OCC5COC(Cn6cncn6)(c6ccc(Cl)cc6Cl)O5)cc4)CC3)cc2)c1=O (stereo not shown) [Orungal]
- Result of treatment (Breast Cancer): Complete recovery at the end of the treatment
- Result of treatment (Ulcerative Colitis): Complete recovery at the end of the treatment
- Result of treatment (Prostate Cancer; Patient 2, Candida serological test 640, 100 mg capsules, 1 caps a day for 1 month): Complete recovery at the end of the treatment with disappearance of the tumour

From US8871226B2, “Methods and compositions for the treatment and diagnosis of cancer” (Hafid Mahboubi, priority 2003, dated 2014)
